# Measured values from patent US20060045884A1, “Vaccines for autoimmune and infectious disease” (Board of Regents, priority 2004, published 2006).
# Entries after “also recorded” stand apart in the source; their conditions may differ. Where two headings read alike, the source gives them in different places.
# Legend:
# [1] = system: peptide-loaded T2 cells; assay: Induction of primary CTL responses with peptide-pulsed T2 cells and 4-hr cytotoxicity against peptide-loaded T2 cells; assay type: cell-based, human; conditions: for elicitation of peptide specific CTL lines: different donors and differing peptide concentrations; for peptide-specific lysis by CTL line generated against the peptide: T2 cells loaded with 1.0 μg/mL of the same peptide, E:T 50:1 to 6:1; for donors in which peptide-stimulated CTL lines killed CCNE1144-152- and CCNE2144-152-pulsed T2 cells: PBMCs from 7 HLA-A2 positive normal donors; for peptide-specific lysis by CTL line generated against the MPO peptide: T2 cells loaded with 2.0 μg/mL of the same peptide
# [2] = system: PBMC from HLA-A2.1+ healthy donor; assay: PR1/HLA-A2 tetramer staining of CTL elicited from healthy donor PBMC with PR1-pulsed T2 cells; assay type: cell-based, human
# [3] = biological target: HLA-A2.1 (Homo sapiens, UniProt P04439, D140Y/D185E/D98H/E176V/E277Q/G131W/G231S/I119V/I121R/I166T/I218V/L300P/L318F/N151K/N90K/P208A/P217A/Q86G/Q94H/R138H/R169H/T345S); assay: Peptide binding: HLA-A2.1 surface expression on peptide-coated T2 cells by indirect flow cytometry; conditions: for Median Channel of Fluorescence of HLA-A2 Expression on T2: background HLA-A2 without peptide 22; for surface HLA-A2.1 expression compared with T2 cells with no added peptide: result in words; for peptide binding to HLA-A*0201, fluorescence intensity versus positive control peptide (Influenza B Nuclear Protein): T2 cells pulsed 18 hr
# [4] = system: PBMCs from HLA-A2+ CML patients; assay type: cell-based, human
# [5] = system: PR1-CTL from a healthy donor; assay: Annexin V staining of PR1-CTL 16 to 18 hr after challenge with peptide-pulsed T2 cells; assay type: cell-based, human; conditions: for apoptosis of high avidity PR1-CTL: T2 cells pulsed with 20 μM peptide
# Source text: High PR1 concentration and proteinase 3-overexpressing CML cells induce apoptosis of high avidity PR1-specific CTL. […] All high avidity PR1-CTL exposed to high dose PR1 were dead after 36 to 48 hr of co-culture.
# [6] = system: HLA-A2+ patients with CML, AML or MDS; assay: Phase I/II PR1 peptide vaccine study; assay type: in vivo, human; conditions: 9 patients
# Source text: To test this in refractory leukemia patients, a phase I/II vaccine study was initiated. HLA-A2^+ patients with CML (interferon-resistant or relapsed after BMT), AML (smoldering relapse or ≧2nd CR) or MDS (RAEB or RAEBt) with no detectable antibodies to proteinase 3 (no detectable cANCA) were eligible. Patients that relapsed after BMT or those ineligible for BMT were also eligible for study. Pregnant patients, HIV+ patients, and those with known vasculitis were excluded. Patients were required to have immunosuppression (i.e. cyclosporine, steroids) discontinued 4 weeks prior to study entry.
# Secondarily, clinical responses were assessed by standard criteria with bone marrow biopsy, cytogenetic studies (standard chromosome banding) and molecular studies (PCR for bcr-abl or other known abnormalities such as t(15;17), inv16, etc.) 3 weeks after the last vaccination. Patients were seen and evaluated in clinic every 3 weeks during the study period. Both vialed PR1 peptide (NSC698102) and the adjuvant (Montanide ISA-51, NSC675756) were used in this study.
# The overall study was divided into two parts: Phase I consisted of nine patients treated in cohorts of three at 1 of 3 dose levels of 0.25 mg, 0.5 mg, or 1.0 mg of PR1 peptide given subcutaneously in incomplete Freund's adjuvant (Montanide ISA-51) and GM-CSF 75 mg subcutaneously every 3 weeks for 3 injections. […]
# [7] = system: HLA-A2.1 positive human myeloid leukemia cells; assay: 4-hr cytotoxicity of peptide-specific CTL against leukemia cells, normal marrow and cell lines; assay type: cell-based; conditions: not non-transfected K562
# Experimental: CTL cytotoxicity assay. A semi-automated minicytotoxicity assay was used to determine specific lysis as described previously (Molldrem, 2000; Molldrem et al., 1996). Briefly, effector cells were prepared in doubling dilutions from 6×10^3 to 25×10^3 cells/well and were plated in 40 μl, 60-well Terasaki trays (Robbins Scientific, Sunnyvale, Calif., USA) with six replicates per dilution. Target cells (T2 cells, marrow-derived leukemic cells, or BM from a healthy donor) at a concentration of 2×10^6 cells/ml were stained with 10 μg/ml of Calcein-AM (Molecular Probes Inc.) for 60 min at 37° C. […] Wells with target cells alone and medium alone were used for maximum (max) and minimum (min.) fluorescence emission, respectively. After 4 hr incubation at 37° C. in 5% CO2, 5 μl FluoroQuench (One Lambda Inc., Canoga Park, Calif., USA) was added to each well, and the trays were centrifuged for 1 min at 60 g before measurement of fluorescence using an automated CytoFluor II plate reader (PerSeptive Biosystems, Framingham, Mass., USA). The percentage of lysis was calculated as follows: % lysis={1−[(mean experimental mission−mean min.)/(mean max−mean min.)]}×100%.
# PR1 specific CTL preferentially lyse human myeloid leukemia cells. It was next determined whether the PR1-specific CTL line was capable of lysing allogeneic human myeloid leukemia cells from HLA-A2.1 positive individuals. […]
substance,measurement,setting,value
LLSYFKQPV [MY3],elicitation of peptide specific CTL lines,[1],No peptide specific CTL lines could be elicited
"VLQELNVTV [PR1, HLA-A2.1-restricted nonamer (aa 169-177) derived from proteinase 3]",high intensity PR1/HLA-A2 tetramer-staining CTL elicited,[2]; 0.2 μM PR1 weekly for 28 days,1.3%
same,median channel of flourescence (MCF) of tetramer staining,[2]; 20 μM PR1,93
same,low avidity PR1-specific CTL elicited,[2]; 20 μM PR1 weekly for 28 days,3.1%
same,bulk culture CTL double-positive for anti-CD8 and PR1-tetramer,[2]; 32 day-old PR1-stimulated CTL culture,4.3%
same,fraction of CTL line specific for PR1 (CD8/PR1-tetramer),[2]; day 17 CTL line elicited against PR1,2.4%
same,PR1-CTL induced,[2]; ≦0.02 μM PR1,< 0.1%
same,surface HLA-A2 expression on T2 cells versus PR1 concentration,[3]; PR1 from 2 μM and 200 μM,increases linearly
same,Median Channel of Fluorescence of HLA-A2 Expression on T2,[3],294
same,surface HLA-A2.1 expression compared with T2 cells with no added peptide,[3],increased surface HLA-A2.1 expression
same,avidity of PR1-CTL that could be elicited from CML patients,"[4]; CML #1, #2, #3, weekly PR1 stimulation",Only low-avidity PR1-CTLs could be elicited; also recorded: Only low avidity PR1-CTL could be elicited
same,lowest PR1 concentration eliciting PR1-CTLs,[4]; patient 1,≥ 0.2 µM
same,lowest PR1 concentration eliciting low-avidity PR1-CTLs,[4]; patient 2,0.02 µM
same,lowest PR1 concentration eliciting low-avidity PR1-CTLs,[4]; patient 3,0.002 µM
same,peptide-specific lysis by CTL line generated against the peptide,[1],high specific lysis
same,apoptosis of high avidity PR1-CTL,[5],underwent apoptosis
same,apoptosis of low avidity PR1-CTL,[5]; high or low concentrations of PR1,did not undergo apoptosis
same,PR1-specific CTL immunity elicited (by tetramer staining),[6],6 of 9
same,complete remissions,[6],2 patients
ILLDWLMEV [CCNE1144-152],peptide-stimulated CTL lines that killed HLA-A2 transfected K562 leukemic cell line,[7],one of 4
same,donors in which peptide-stimulated CTL lines killed CCNE1144-152- and CCNE2144-152-pulsed T2 cells,[1],3 of 7
"Influenza nucleoprotein: control influenza peptide, Influenza B nucleoprotein (aa 85-94), known high binding affinity to HLA-A2.1 (KLGEFYNQMM) [reference compound]",Median Channel of Fluorescence of HLA-A2 Expression on T2,[3],194
same,apoptosis of high avidity PR1-CTL,[5],no apoptosis was observed
RLFEQVMRI [MY4],peptide-specific lysis by CTL line generated against the MPO peptide,[1],tested similarly
ILLDWLLEV [CCNE2144-152],donors in which peptide-stimulated CTL lines killed CCNE1144-152- and CCNE2144-152-pulsed T2 cells,[1],4 of 7
SLWRRPFNV [MY1],elicitation of peptide specific CTL lines,[1],No peptide specific CTL lines could be elicited
"NLVPMVATV [pp65 peptide, reference compound]",avidity of CTLs elicited with pp65 peptide-pulsed T2 cells,[4],high-avidity p65-specific CTLs
KLLLALAGL [MY2],peptide-specific lysis by CTL line generated against the MPO peptide,[1],high specific lysis
KLNDILLIQL [PR7I],"peptide binding to HLA-A*0201, fluorescence intensity versus positive control peptide (Influenza B Nuclear Protein)",[3],strong peptide binding
LIQPFMFRL [MY5],elicitation of peptide specific CTL lines,[1],No peptide specific CTL lines could be elicited
KLNDVLLIQL [PR7V],"peptide binding to HLA-A*0201, fluorescence intensity versus positive control peptide (Influenza B Nuclear Protein)",[3],strong peptide binding
RLFPDFFTRV [PR2],Median Channel of Fluorescence of HLA-A2 Expression on T2,[3],273
same,surface HLA-A2.1 expression compared with T2 cells with no added peptide,[3],increased surface HLA-A2.1 expression
same,peptide-specific lysis by CTL line generated against the peptide,[1],did not demonstrate any significant cytotoxicity
